Data taken from patent US20110183891A1 (priority 2009, published 2011).
Entries after “also recorded” stand apart in the source; their conditions may differ. Positions of bridges follow the written chain, without caps; N, C: chain ends. Non-standard residues stand in square brackets, D forms with d. Residues, ends and D or L forms follow the SMILES beside them. hArg = N=C(N)NCCCC[C@H](N)C(=O)O; Mpa = O=C(O)CCS

Tests used:
[1] = tested on: SAP 6 binding to A549 cells; experiment: Inhibition of labeled SAP 6 binding to human lung carcinoma A549 cells (FACS); type: cell-based; details: for ratio of positive cells in R4: 400 μM inhibitor + labeled SAP 6, cells + labeled SAP 6 alone 3.23%, cells only 0.69%; for inhibition of SAP 6 binding to A549 cells: 10° C. for 30 min, FACS
Experimental: RGDS peptide or Integrilin® inhibition assay and cell viability assay. Grew human lung carcinoma A 549 cell and harvested the cells with 46×10^4 per ml. Changed the medium from complete growth medium into D-MEM/F-12 without phenol red; and transferred the aliquot volume of 0.2 ml cells into 1.5 ml sterile tubes. Added 50 μl of 2.4 mM RGDS peptide and Integrilin® into sample III and sample IV respectively, incubated all samples at 37° C. for 10 min. Then, added […] labeled Fluoro®-488 SAP 6 into Sample II, Sample III and Sample IV (Sample I is negative control, added 100 μl medium inside). Incubated the four mixtures at 10° C. for 30 min, and then centrifuged the cell cultures at 400 g at 10° C. for 5 min to remove the suspension. Washed the cells 1-2 times with 1 ml D-MEM/F-12 medium without phenol red to remove the unbound compounds. Sort the negative (non-labeling SAP 6) and positive (binding labeled SAP 6) cells by fluorescence-activated cell-sorting (FACS). […] It is often considered as a negative control.

A549 cells = experiment: Morphology assay, rescue of apoptosis of A549 cells induced by SAP 6; type: cell-based, human; details: bright-field images after two weeks incubation, data not shown
[2] = tested on: SAP 6 binding to human platelets; details: for inhibition of SAP 6 binding to human platelets: ADP-activated platelets, Alexa Fluor 488 SAP 6
Experimental: Cells were incubated with labeled enzyme together with ADP and inhibitors respectively at 40° C., then pellets were resuspended in 100 ml Hepes-Tyrode buffer, and fluorescence measured by TECAN (Ex./Em.=488 nm/519 nm). […] T test (mean with SEM), n=3, *P<0.05, **P<0.001.
Recombinnat C. albicans SAP 6 was labeled with Alexa Fluor® 488 based on the Invitrogen Alexa Fluor® 488 protein labeling kit manual. […] To obtain the pure platelets, it needs to be further isolated as follows: (1) carefully transfer 10 ml platelets (including rich plasma) to a 15 ml tube and add 1/10 volume of ACD anticoagulant (6.25 g sodium citrate.2H2O, 3.1 g citric acid anhidrous, 3.4 g D-glucose in 250 ml H2O); (2) pellet platelets by centrifuged at 3000 rpm for 5 minutes at room temperature (note: after centrifugation, supernatant still contains significant amount of platelets and it can be collected for experiments); (3) resuspend the pellet in ˜1 ml Hepes-Tyrode buffer pH=7.4 (134 mM sodium chloride, 12 mM sodium bicarbonate, 2.9 mM potassium chloride, 0.34 mM sodium phosphate monobasic, 5 mM Hepes, 5 mM glucose, 1% BSA). When the human platelets were ready, they were incubated labeled SAP 6 with relative amount of platelets at 4° C., room temperature and 37° C. for 2 h, 1 h and 30 min respectively. The mixtures were washed by Hepes-Tyrode buffer two times at 1500 rpm for 8 min. Resuspended the pellets in Hepes-Tyrode buffer and mounted on glass slides. The glass slides were imaged by the epifluorescence microscope for simultaneous detection of Platelet/SAP 6-AlexaFluor-488 fluorescence (FIGS. 3A-B).
Purified recombination C. albicans SAP 6 was labeled by the Alexa Fluor° 488 Protein Labeling Kit from Invitrogen. […] Fifty μl purified human platelets were added into the total 100 μl reaction mixture. A gradient of ADP concentrations (0.25 μM, 0.5 μM and 1 μM) was designed to test if ADP can activate platelets during the binding assay (FIG. 4A).

[3] = cited from earlier work
[4] = biological target: integrin of A549 cells (human lung carcinoma cells)

Arg-Gly-Asp-Ser (RGDS)
ratio of positive cells in R4 [1]: 1.68% | inhibition of SAP 6 binding to A549 cells [1]: much more inhibition than that of Integrilin®; also recorded: significantly inhibit | rescue of apoptosis of A549 cells induced by SAP 6 (A549 cells): can rescue the apoptosis | inhibition of SAP 6 binding to human platelets [2]: dose-dependent inhibition | inhibition of SAP 6 binding to human platelets, compared between inhibitors ([2]; FIG. 4B): much stronger than that of Integrilin®

OC(Cn1cncn1)(Cn1cncn1)c1ccc(F)cc1F [Fluconazole]
absorption from the GI tract ([3]; in vivo, po): almost completely absorbed

secreted aspartic protease 6 (SAP 6) from Candida albicans, recombinant (from UniProt P43095) (enzyme)
ratio of positive cells in R4 [4]: 3.23%

SDGRG: reverse peptide with no competition for integrin binding, negative control
inhibition of SAP 6 binding to A549 cells [1]: significantly less inhibition | inhibition of SAP 6 binding to A549 cells ([1]; listed as RDGRG): less inhibitory

CC(=O)N1CCN(c2ccc(OCC3COC(Cn4ccnc4)(c4ccc(Cl)cc4Cl)O3)cc2)CC1 (stereo not shown) [Ketoconazole]
peak plasma concentrations ([3]; oral doses 200-800 mg): 4 to 20 µg/mL

Integrilin® (C35H49N11O9S2, molecular weight 831.96) (peptide)
ratio of positive cells in R4 [4]: 2.42%

CCC(C)n1ncn(-c2ccc(N3CCN(c4ccc(OCC5COC(Cn6cncn6)(c6ccc(Cl)cc6Cl)O5)cc4)CC3)cc2)c1=O (stereo not shown) [Itraconazole]
absorption in the fasting state relative to drug taken with food ([3]; in vivo, po): 30%

N=C(N)NCCCC[C@@H]1NC(=O)CCSSC[C@@H](C(N)=O)NC(=O)[C@@H]2CCCN2C(=O)[C@H](Cc2c[nH]c3ccccc23)NC(=O)[C@H](CC(=O)O)NC(=O)CNC1=O [Integrilin®] ([Mpa][hArg]GDWPC-NH2; disulfide 1-7)
ratio of positive cells in R4 [1]: 2.42% | inhibition of SAP 6 binding to A549 cells [1]: can inhibit; also recorded: significantly inhibit | inhibition of SAP 6 binding to human platelets [2]: dose-dependent inhibition

Clc1ccccc1C(c1ccccc1)(c1ccccc1)n1ccnc1 [Clotrimazole]
absorption after application to the skin ([3]; in vivo): less than 0.5% | absorption from the vagina ([3]; in vivo): 3-10%

Clc1ccc(COC(Cn2ccnc2)c2ccc(Cl)cc2Cl)cc1 (stereo not shown) [Econazole]
absorbed into the blood ([3]; in vivo): Less than 1%

B1: RGDS peptide (Arg-Gly-Asp-Ser) (peptide)
peptide: RGDS
ratio of positive cells in R4 [4]: 1.68%
